*1 amine or outer side, *2 acyl side, *3 side chain or, on linkers, in order; H or OH if unused. [ ]: non-standard residue; d: D form. ξ: configuration not given here. DAPTZAC3 = (S)-3-(4-(3-acrylamidopropyl)-1H-1,2,3-triazol-1-yl)-2-aminopropanoic acid, C=CC(=O)NCCCc1cn(C[C@H](N[*:1])C(=O)[*:2])nn1; Trp(7-aza) = N[C@@H](Cc1c[nH]c2ncccc12)C(=O)O; NMePhe(4-F) = CN[C@@H](Cc1ccc(F)cc1)C(=O)O; Tle = CC(C)(C)[C@H](N)C(=O)O; ξPhg = NC(C(=O)O)c1ccccc1; NMeA = CN[C@@H](C)C(=O)O; Nva = CCC[C@H](N)C(=O)O; Sar = CNCC(=O)O

Data on 11 compounds can be found in US10954287B2, “Ras binding peptides and methods of use” (Ra Pharmaceuticals, Inc., priority 2016, dated 2021).

For the experiment, the system named is GMPPNP-loaded H-Ras or GTP-loaded K-Ras. In words: Fluorescence polarization competition assay with TAMRA-labeled probe R4007. It is filed as binding, human. As to conditions: 120 nM Ras, 30 nM probe R4007, 60 minutes at room temperature; read-out: Probe displacement (nM IC50). As to the method: R4000 was evaluated for competition with a TAMRA labeled probe (R4007) based on peptide R4000. The assay was performed in 384-well black, non-binding plates (Greiner Bio-One, Monroe, N.C.). GMPPNP-loaded H-Ras or GTP-loaded K-Ras, diluted in FP assay buffer (20 mM Tris-HCl, pH 7.5, 50 mM NaCl, 5 mM MgCl2, 1 mM EDTA, 0.002% Triton-X-100) for a final concentration of 120 nM was incubated with 30 nM R4007 for 20 minutes at room temperature. R4000 was serially diluted, added to the assay and incubated for 60 minutes at room temperature. Fluorescence polarization was detected with a SpectraMax Paradigm plate reader (Molecular Devices, Sunnyvale, Calif.) using the Rhodamine FP detection cartridge (535 nm/595 nm). Data was analyzed using GraphPad Prism and Ki determined using One Site Ki Curve fitting model.
Peptides were evaluated for competition with R4007, a probe consisting of TAMRA-labeled R4000, using a fluorescence polarization (FP) competition assay. The assay was performed in 384-well black, non-binding plates (Greiner Bio-One, Monroe, N.C.). GMPPNP-loaded H-Ras or GTP- loaded K-Ras, diluted in FP assay buffer (20 mM Tris-HCl, pH 7.5, 50 mM NaCl, 5 mM MgCl2, 1 mM EDTA, 0.002% Triton-X-100) for a final concentration of 120 nM was incubated with 30 nM probe for 20 minutes at room temperature. Peptides were serially diluted, added to the assay and incubated for 60 minutes at room temperature. Fluorescence was detected with a SpectraMax Paradigm plate reader (Molecular Devices, Sunnyvale, Calif.) using the Rhodamine FP detection cartridge (535 nm/595 nm). Data was analyzed and Ki determined using a One Site Ki Curve fitting model. Percent inhibition for each data point was calculated relative to the maximal binding in test compound-free control wells (showing no probe displacement) and Ras-free control wells (showing no probe binding) and the half-maximal inhibitory concentration (IC50), based on probe displacement, was determined.
(In general: Polarisation of emitted light reports the rotation of a fluorescent probe.)

The term IC50 denotes the midpoint of a concentration-inhibition curve. Consider `CCC[C@H](NC(C)=O)C(=O)N[C@H]1CSCc2cccc(c2)CSC[C@@H](C(=O)N[C@H](CO)C(=O)N[C@H](C)C(=O)N[C@@H](CCCCN)C(=O)N[C@@H](CSSC(C)(C)C)C(=O)N[C@H](C(=O)N[C@H](C(=O)N[C@@H](CCSC)C(=O)O)[C@@H](C)CC)C(C)C)NC(=O)CN(C)C(=O)[C@H](Cc2ccc(F)cc2)N(C)C(=O)[C@H](Cc2ccc(O)cc2)NC(=O)[C@H](Cc2c[nH]c3ncccc23)NC(=O)[C@H](c2ccccc2)NC(=O)[C@H](C)N(C)C(=O)[C@H](Cc2c[nH]cn2)NC(=O)[C@H](CCCCN)NC(=O)[C@H](C(C)(C)C)NC(=O)[C@H](Cc2ccc(O)cc2)NC1=O` (relative stereo) [Compound R4111, ACE-NVA-CYS*-TYR-TBG-LYS-HIS-NMA-PHG-7AW-TYR-MFF-SAR-CYS*-DSER-DALA-LYS-TDSPA-VAL-ILE-MET], for which the IC50 worked out at 20.8 nM.
The same measure for `CCC[C@H](NC(C)=O)C(=O)N[C@H]1CSCc2cccc(c2)CSC[C@@H](C(N)=O)NC(=O)[C@H](Cc2c[nH]cn2)NC(=O)[C@H](CCC)NC(=O)[C@H](Cc2c[nH]c3ncccc23)NC(=O)[C@H](CCC(=O)O)NC(=O)[C@H](Cc2c[nH]c3ncccc23)NC(=O)[C@H](Cc2c[nH]c3ncccc23)NC(=O)[C@H]([C@@H](C)O)NC(=O)[C@H](Cc2c[nH]cn2)NC(=O)[C@H](Cc2ccc(O)cc2)NC(=O)[C@H](C(C)(C)C)NC1=O` (relative stereo) [Compound R4100, ACE-NVA-CYS*-TBG-TYR-HIS-THR-7AW-7AW-GLU-7AW-NVA-HIS-CYS*-NH2]: 1.06 nM; for `CCC[C@H](NC(=O)CCCC(=O)O)C(=O)N[C@H]1CSCc2cccc(c2)CSC[C@@H](C(N)=O)NC(=O)CN(C)C(=O)[C@H](Cc2ccc(F)cc2)N(C)C(=O)[C@H](Cc2ccc(O)cc2)NC(=O)[C@H](Cc2c[nH]c3ncccc23)NC(=O)[C@H](c2ccccc2)NC(=O)[C@H](C)N(C)C(=O)[C@H](Cc2c[nH]cn2)NC(=O)[C@H](CCCCN)NC(=O)[C@H](C(C)(C)C)NC(=O)[C@H](Cc2ccc(O)cc2)NC1=O` (relative stereo) [Compound R4103, GLA-NVA-CYS*-TYR-TBG-LYS-HIS-NMA-PHG-7AW-TYR-MFF-SAR-CYS*-NH2]: 2 nM.
The same measure for `CCC[C@H](NC(C)=O)C(=O)N[C@H]1CSCc2cccc(c2)CSC[C@@H](C(=O)N[C@H](CO)C(=O)N[C@H](C)C(=O)NCC(=O)N[C@@H](CS)C(=O)N[C@H](C(=O)N[C@H](C(=O)N[C@@H](CCSC)C(=O)O)[C@@H](C)CC)C(C)C)NC(=O)CN(C)C(=O)[C@H](Cc2ccc(F)cc2)N(C)C(=O)[C@H](Cc2ccc(O)cc2)NC(=O)[C@H](Cc2c[nH]c3ncccc23)NC(=O)[C@H](c2ccccc2)NC(=O)[C@H](C)N(C)C(=O)[C@H](Cc2c[nH]cn2)NC(=O)[C@H](CCCCN)NC(=O)[C@H](C(C)(C)C)NC(=O)[C@H](Cc2ccc(O)cc2)NC1=O` (relative stereo) [Compound R4102, ACE-NVA-CYS*-TYR-TBG-LYS-HIS-NMA-PHG-7AW-TYR-MFF-SAR-CYS*-DSER-DALA-GLY-CYS-VAL-ILE-MET]: 1.82 nM; for `C=CC(=O)NCC[C@@H]1NC(=O)[C@H](C)NC(=O)[C@H](C(C)(C)C)NC(=O)[C@H](Cc2ccc(O)cc2)NC(=O)[C@@H](NC(=O)[C@H](CCC)NC(C)=O)CSCc2cccc(c2)CSC[C@@H](C(N)=O)NC(=O)CN(C)C(=O)[C@H](Cc2ccc(F)cc2)N(C)C(=O)[C@H](Cc2ccc(O)cc2)NC(=O)[C@H](Cc2c[nH]c3ncccc23)NC(=O)[C@H](c2ccccc2)NC(=O)[C@H](C)N(C)C1=O` (relative stereo) [Compound R4146, ACE-NVA-CYS*-TYR-TBG-ALA-DABAC1-NMA-PHG-7AW-TYR-MFF-SAR-CYS*-NH2]: 3390 nM.
The same measure for “ACE-NVA-SER-TYR-TBG-ALA-DAPTZAC3-NMA-RPHG-7AW-TYR-MFF-SAR-SER-NH2 (Ac-[Nva]SY[Tle]A[DAPTZAC3][NMeA][ξPhg][Trp(7-aza)]Y[NMePhe(4-F)][Sar]S-NH2) [Compound R4148, linear]”: 6000 nM; for `CCC[C@H](NC(=O)CCCC(=O)O)C(=O)N[C@H]1CSCc2cccc(c2)CSC[C@@H](C(N)=O)NC(=O)CN(C)C(=O)[C@H](Cc2ccc(F)cc2)N(C)C(=O)[C@H](Cc2ccc(O)cc2)NC(=O)[C@H](Cc2c[nH]c3ncccc23)NC(=O)[C@H](c2ccccc2)NC(=O)[C@H](C)N(C)C(=O)[C@H](Cc2c[nH]cn2)NC(=O)[C@H](CCCCNC(CC(C)C)=C2C(=O)CC(C)(C)CC2=O)NC(=O)[C@H](C(C)(C)C)NC(=O)[C@H](Cc2ccc(O)cc2)NC1=O` (relative stereo) [Compound R4138, GLA-NVA-CYS*-TYR-TBG-LYS-(DDE)-HIS-NMA-PHG-7AW-TYR-MFF-SAR-CYS*-NH2]: 461 nM.
Regarding `C#CC[C@@H]1NC(=O)CN(C)C(=O)[C@H](Cc2ccc(F)cc2)N(C)C(=O)[C@H](Cc2ccc(O)cc2)NC(=O)[C@H](Cc2c[nH]c3ncccc23)NC(=O)[C@H](c2ccccc2)NC(=O)[C@H](C)N(C)C(=O)[C@H](Cc2c[nH]cn2)NC(=O)[C@H](CCCCN)NC(=O)[C@H](C(C)(C)C)NC(=O)[C@H](Cc2ccc(O)cc2)NC1=O` (relative stereo) [Compound R4145, TYR*-TBG-LYS-HIS-NMA-PHG-7AW-TYR-MFF-SAR-PRG*], the concentration for half-maximal inhibition (IC50) came out at 2800 nM.
Turning to `CCC[C@H](NC(C)=O)C(=O)N[C@H]1CSCc2cccc(c2)CSC[C@@H](C(=O)NCC(=O)N[C@@H](CS)C(=O)NCC(=O)N[C@H](C(=O)NCC(=O)N[C@H](C(=O)N[C@@H](CCSC)C(=O)O)[C@@H](C)CC)C(C)C)NC(=O)CN(C)C(=O)[C@H](Cc2ccc(F)cc2)N(C)C(=O)[C@H](Cc2ccc(O)cc2)NC(=O)[C@H](Cc2c[nH]c3ncccc23)NC(=O)[C@H](c2ccccc2)NC(=O)[C@H](C)N(C)C(=O)[C@H](Cc2c[nH]cn2)NC(=O)[C@H](CCCCN)NC(=O)[C@H](C(C)(C)C)NC(=O)[C@H](Cc2ccc(O)cc2)NC1=O` (relative stereo) [Compound R4119, ACE-NVA-CYS*-TYR-TBG-LYS-HIS-NMA-PHG-7AW-TYR-MFF-SAR-CYS*-GLY-CYS-GLY-VAL-GLY-ILE-MET], the 50% inhibitory concentration (IC50) was 64.4 nM.
The figure for `CCC[C@H](NC(C)=O)C(=O)N[C@H]1CSCc2cccc(c2)CSC[C@@H](C(N)=O)NC(=O)CN(C)C(=O)[C@H](Cc2ccc(F)cc2)N(C)C(=O)[C@H](Cc2ccc(O)cc2)NC(=O)[C@H](Cc2c[nH]c3ncccc23)NC(=O)[C@H](c2ccccc2)NC(=O)[C@H](C)N(C)C(=O)[C@H](Cc2c[nH]cn2)NC(=O)[C@H](CCCCN)NC(=O)[C@H](C(C)(C)C)NC(=O)[C@H](C)NC1=O` (relative stereo) [Compound R4152, ACE-NVA-CYS*-ALA-TBG-LYS-HIS-NMA-PHG-7AW-TYR-MFF-SAR-CYS*-NH2] is 28300 nM.
The figure for `CC(=O)N[C@H]1CSCc2cccc(c2)CSC[C@@H](C(N)=O)NC(=O)CN(C)C(=O)[C@H](Cc2ccc(F)cc2)N(C)C(=O)[C@H](Cc2ccc(O)cc2)NC(=O)[C@H](Cc2c[nH]c3ncccc23)NC(=O)[C@H](c2ccccc2)NC(=O)[C@H](C)N(C)C(=O)[C@H](Cc2c[nH]cn2)NC(=O)[C@H](CCCCN)NC(=O)[C@H](C(C)(C)C)NC(=O)[C@H](Cc2ccc(O)cc2)NC1=O` (relative stereo) [Compound R4112, ACE-CYS*-TYR-TBG-LYS-HIS-NMA-PHG-7AW-TYR-MFF-SAR-CYS*-NH2] is 21.4 nM.
